“Also recorded” adds a separate entry of the source.
Experiments:
T. gallinae trophozoites = assay: Morphological evaluation by light microscopy (Diff-Quik), T. gallinae; type: cell-based, Trichomonas gallinae; conditions: germacrone 100 µg/mL
Excerpt: At each time point, quadruplicates were assigned per condition: growth control, germacrone, and the corresponding positive control (metronidazole or amphotericin B). For microscopy, quadruplicate wells corresponding to the same condition/time point were pooled prior to centrifugation to obtain sufficient biomass and a representative pellet for smear preparation. Pooled samples per condition/time point were centrifuged, resuspended in FBS and spread onto microscope slides. Once dried, samples were fixed and stained with Diff-Quik (Medion Diagnostic AG, […], Switzerland) following the manufacturer's instructions. Additionally, three wells per condition (triplicates) were used for the MTT assay, with absorbance measured by spectrophotometry after 48 h. Morphological changes were analyzed using light microscopy. Experiments were performed as independent biological replicates on different plates, and one Diff-Quik stained smear was obtained per condition and time point per biological replicate. For morphometric analysis, a total of 30 trophozoites per condition and time point were measured across the independent biological replicates and were selected by consecutive sampling during a predefined serpentine (zig-zag) scan across the preparation. Up to two eligible trophozoites per field (intact, well-focused and non-overlapping) were measured in sequential fields until n = 30 was reached, avoiding subjective selection of “representative” cells. Overlapping, partially visible, out-of-focus, edge-of-field, or debris-obscured trophozoites were excluded a priori. Trophozoites were photographed using a researcher's mobile phone mounted to the microscope ocular. Calibration was performed at the same magnification using a stage micrometre and applied in ImageJ v. 1.54d. One Diff-Quik stained smear was obtained per condition/time point per biological replicate Cell length, cell width, cell surface, nuclear length, nuclear width, axoneme (only Giardia), and length of axostyle (only T. gallinae) were measured with ImageJ software, and the data were recorded in an Excel database for statistical analysis. The Shapiro-Wilk test was used to assess the normality of the morphological variables. When data followed a normal distribution, Student's t-test was applied; otherwise, non-parametric tests, such as the Mann-Whitney U test, was used. Values of p < 0.05 were considered significant. For the morphological analysis, the mean, standard deviation, median, and interquartile range were calculated using SPSS version 20 (IBM Corp., Armonk, NY, USA).

[1] = tested on: L. infantum promastigotes; assay: Morphological evaluation by light microscopy (Diff-Quik), L. infantum; type: cell-based, Leishmania infantum; conditions: germacrone 100 µg/mL
Protocol: L. infantum, T. gallinae and G. duodenalis were studied at 0, and 48 h after treatment with germacrone (100 µg/mL), and controls (DMSO 1%, metronidazole at 10 µg/mL for T. gallinae and G. duodenalis and amphotericin B at 1 µg/mL for L. infantum).
For L. infantum and T. gallinae, cultures in the exponential growth phase (10^7 promastigotes/mL and 5 × 10^5 trophozoites/mL, respectively) were treated in 96-well microplates. At each time point, quadruplicates were assigned per condition: growth control, germacrone, and the corresponding positive control (metronidazole or amphotericin B). For microscopy, quadruplicate wells corresponding to the same condition/time point were pooled prior to centrifugation to obtain sufficient biomass and a representative pellet for smear preparation. Pooled samples per condition/time point were centrifuged, resuspended in FBS and spread onto microscope slides. Once dried, samples were fixed and stained with Diff-Quik (Medion Diagnostic AG, Düdingen, Switzerland) following the manufacturer’s instructions. Additionally, three wells per condition (triplicates) were used for the MTT assay, with absorbance measured by spectrophotometry after 48 h.
Morphological changes were analyzed using light microscopy. Experiments were performed as independent biological replicates on different plates, and one Diff-Quik stained smear was obtained per condition and time point per biological replicate. For morphometric analysis, a total of 30 trophozoites per condition and time point were measured across the independent biological replicates and were selected by consecutive sampling during a predefined serpentine (zig-zag) scan across the preparation. Up to two eligible trophozoites per field (intact, well-focused and non-overlapping) were measured in sequential fields until n = 30 was reached, avoiding subjective selection of “representative” cells. Overlapping, partially visible, out-of-focus, edge-of-field, or debris-obscured trophozoites were excluded a priori. Trophozoites were photographed using a researcher’s mobile phone mounted to the microscope ocular. Calibration was performed at the same magnification using a stage micrometre and applied in ImageJ v. 1.54d. One Diff-Quik stained smear was obtained per condition/time point per biological replicate Cell length, cell width, cell surface, nuclear length, nuclear width, axoneme (only Giardia), and length of axostyle (only T. gallinae) were measured with ImageJ software, and the data were recorded in an Excel database for statistical analysis.
The Shapiro–Wilk test was used to assess the normality of the morphological variables. When data followed a normal distribution, Student’s t-test was applied; otherwise, non-parametric tests, such as the Mann–Whitney U test, was used. Values of p < 0.05 were considered significant. For the morphological analysis, the mean, standard deviation, median, and interquartile range were calculated using SPSS version 20 (IBM Corp., Armonk, NY, USA).

[2] = metronidazole 10 µg/mL, 0.5 and 48 h, control DMSO 1%

## CC(C)=C1C/C=C(\C)CC/C=C(\C)CC1=O [Compound 2, germacrone]
T. gallinae trophozoites; [2]
  axostyle length vs control: decreased at 0.5 h; also recorded: after 48 h, it increased
  cell length vs control: increase after 48 h
  cell surface area vs control: decreased transiently at 0.5 h but increased at 48 h
  cell width vs control: significant decrease exclusively in germacrone-treated parasites compared to the control at 0.5 h
  nuclear length vs control: increased upon germacrone exposure
  nuclear width vs control: diminished at 0.5 h; also recorded: By 48 h, nuclear width increased
T. gallinae trophozoites; 48 h of exposure, Diff-Quik
  morphological changes (light microscopy): elongation of the cytoplasm and the nucleus
[1]; 0.5 and 48 h, control DMSO 1%
  cell length vs control: initial increase at 0.5 h but subsequently decreased at 48 h
  cell surface area vs control: transiently increased at 0.5 h with no significant changes detected at 48 h
  cell width vs control: increased significantly at both 0.5 and 48 h
[1]; 48 h of exposure, Diff-Quik
  morphological changes (light microscopy): less pronounced

Source: PMC12841663, “Antiprotozoal Potential of Cultivated Geranium macrorrhizum Against Giardia duodenalis, Trichomonas gallinae and Leishmania infantum” (International Journal of Molecular Sciences, 2026)
